This is an account of results in patent US9902696B2, “1,4-substituted piperidine derivatives” (Cephalon, Inc., priority 2015, dated 2018).

T1 sequence (P49327 whole entry): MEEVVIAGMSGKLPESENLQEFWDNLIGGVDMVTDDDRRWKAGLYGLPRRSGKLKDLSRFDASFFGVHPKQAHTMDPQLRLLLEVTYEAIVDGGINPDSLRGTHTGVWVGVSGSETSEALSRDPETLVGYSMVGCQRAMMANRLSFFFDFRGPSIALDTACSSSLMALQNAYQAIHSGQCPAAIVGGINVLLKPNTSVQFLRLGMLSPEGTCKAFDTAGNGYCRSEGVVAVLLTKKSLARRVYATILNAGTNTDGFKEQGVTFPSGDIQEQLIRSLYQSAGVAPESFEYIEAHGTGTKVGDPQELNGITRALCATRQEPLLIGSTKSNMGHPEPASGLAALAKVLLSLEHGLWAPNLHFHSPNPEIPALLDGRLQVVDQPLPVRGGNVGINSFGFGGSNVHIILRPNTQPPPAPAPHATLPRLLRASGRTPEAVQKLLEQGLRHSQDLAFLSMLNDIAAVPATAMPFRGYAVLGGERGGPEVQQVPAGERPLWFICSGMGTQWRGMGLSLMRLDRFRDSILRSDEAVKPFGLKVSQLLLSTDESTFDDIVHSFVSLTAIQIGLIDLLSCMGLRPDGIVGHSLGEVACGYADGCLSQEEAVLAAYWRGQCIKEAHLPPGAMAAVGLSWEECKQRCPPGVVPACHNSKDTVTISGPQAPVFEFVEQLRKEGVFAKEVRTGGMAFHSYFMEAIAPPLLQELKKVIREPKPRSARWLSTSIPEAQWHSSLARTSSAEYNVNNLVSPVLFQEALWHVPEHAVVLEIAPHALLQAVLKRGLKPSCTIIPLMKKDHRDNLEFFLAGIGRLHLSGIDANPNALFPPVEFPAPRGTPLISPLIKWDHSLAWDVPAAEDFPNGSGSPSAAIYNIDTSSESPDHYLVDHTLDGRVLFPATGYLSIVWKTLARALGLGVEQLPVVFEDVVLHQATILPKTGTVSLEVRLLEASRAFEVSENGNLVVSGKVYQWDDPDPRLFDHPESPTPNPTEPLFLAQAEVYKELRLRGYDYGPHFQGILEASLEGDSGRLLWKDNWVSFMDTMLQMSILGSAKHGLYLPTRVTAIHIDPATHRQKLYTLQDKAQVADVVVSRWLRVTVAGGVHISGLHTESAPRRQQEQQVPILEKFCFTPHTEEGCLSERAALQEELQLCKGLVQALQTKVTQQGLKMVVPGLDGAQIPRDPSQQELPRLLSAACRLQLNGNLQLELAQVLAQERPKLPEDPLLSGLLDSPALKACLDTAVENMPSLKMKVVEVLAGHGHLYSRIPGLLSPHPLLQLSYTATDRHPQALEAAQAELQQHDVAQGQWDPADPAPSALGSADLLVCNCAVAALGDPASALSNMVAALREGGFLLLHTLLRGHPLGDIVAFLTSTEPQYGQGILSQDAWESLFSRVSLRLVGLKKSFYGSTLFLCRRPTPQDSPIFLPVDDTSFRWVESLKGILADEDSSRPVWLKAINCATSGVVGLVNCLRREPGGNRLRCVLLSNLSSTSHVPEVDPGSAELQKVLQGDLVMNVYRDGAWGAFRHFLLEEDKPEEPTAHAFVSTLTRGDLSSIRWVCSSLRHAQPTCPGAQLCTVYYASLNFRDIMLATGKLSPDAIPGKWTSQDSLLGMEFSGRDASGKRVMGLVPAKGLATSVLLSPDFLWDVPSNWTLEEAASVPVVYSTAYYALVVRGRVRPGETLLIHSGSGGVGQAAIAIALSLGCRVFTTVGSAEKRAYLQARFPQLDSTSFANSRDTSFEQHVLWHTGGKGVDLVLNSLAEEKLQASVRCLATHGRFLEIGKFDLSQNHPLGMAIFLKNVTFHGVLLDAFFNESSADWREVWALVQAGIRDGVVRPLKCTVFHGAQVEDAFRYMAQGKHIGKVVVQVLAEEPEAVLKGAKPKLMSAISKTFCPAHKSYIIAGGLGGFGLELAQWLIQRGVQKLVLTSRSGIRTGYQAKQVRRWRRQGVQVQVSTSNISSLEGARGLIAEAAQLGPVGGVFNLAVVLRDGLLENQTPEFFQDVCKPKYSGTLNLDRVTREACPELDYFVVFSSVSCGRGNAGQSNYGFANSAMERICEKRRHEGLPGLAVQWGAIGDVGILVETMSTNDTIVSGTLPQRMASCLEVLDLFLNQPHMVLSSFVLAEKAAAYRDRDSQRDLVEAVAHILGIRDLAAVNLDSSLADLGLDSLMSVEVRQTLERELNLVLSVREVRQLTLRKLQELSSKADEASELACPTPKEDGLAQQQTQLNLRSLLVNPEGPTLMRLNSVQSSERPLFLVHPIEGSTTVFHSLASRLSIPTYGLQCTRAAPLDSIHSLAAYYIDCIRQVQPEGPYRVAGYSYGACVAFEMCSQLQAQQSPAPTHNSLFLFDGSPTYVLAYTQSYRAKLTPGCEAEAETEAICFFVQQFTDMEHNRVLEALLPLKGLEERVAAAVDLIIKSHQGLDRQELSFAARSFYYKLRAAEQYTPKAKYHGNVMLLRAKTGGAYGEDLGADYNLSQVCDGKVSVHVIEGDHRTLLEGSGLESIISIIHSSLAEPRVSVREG

The assay addresses T1, recombinant human baculovirus-expressed GST-tagged FASN (Homo sapiens, UniProt P49327).
T1 construct: GST
Kind of assay: FASN enzyme activity assay, fluorescence-based detection of CoA with CPM. The assay is classed as biochemical. The conditions noted are these: 5 nM FASN, 150 μM NADPH, 10 μM acetyl-CoA, 25 μM malonyl-CoA, 90 minutes incubation; read-out: IC50 data for Compounds of Formulae I-V/V(a): Activity. An excerpt:
FASN Enzyme activity may be determined by detecting coenzyme A (CoA), a product of FASN-catalyzed synthesis of palmitate from acetyl-CoA and malonyl-CoA with NADPH as a cofactor. The assay is fluorescence-based and measures the interaction of free CoA with 7-diethylamino-3-(4′-malemimidylphenyl)-4-methylcoumarin (CPM; Life Technologies, CA) as described in Chung et al (2008). The coumarin derivative CPM contains a thiol-reactive maleimide that becomes fluorescent upon interaction with the sulfhydryl group of CoA.
For the example compounds described herein, the reaction was performed in 384-well low volume non-binding plates (Corning, N.Y.) using recombinant human baculovirus-expressed GST-tagged FASN. The 20-μL assay mixture contained 50 mM HEPES (pH 7.5), 5 nM FASN, 150 μM NADPH (Sigma, St. Louis, Mo.), 10 μM acetyl-CoA (Sigma), 25 μM malonyl-CoA (Sigma) and test compound [diluted in dimethyl sulfoxide (DMSO); 0.5% DMSO final in assay after 100 nL addition]. See, Chung et al.; “A fluorescence-based thiol quantification assay for ultra-high-throughput screening for inhibitors of coenzyme A production,” Assay Drug Dev Tech 2008; 6:361-374.
The reaction was initiated by adding malonyl-CoA, followed by incubation for 90 minutes at […]. A stock solution of the CPM reagent was prepared in DMSO at […] and stored at […]. To detect CoA produced in the FASN reaction, the CPM stock was diluted to […] in 70% ethanol and added at 4 μL/well to the assay plate. The reaction mixture was then incubated for 30 minutes. Fluorescence was measured using the EnVision™ 2102 multi-label plate reader (PerkinElmer, Waltham, Mass.) utilizing a general dual mirror, a 390 nm excitation filter and a 530 nm emission filter. Data analysis was performed using ActivityBase (IDBS, Guilford, UK). IC50 values were calculated by plotting the percent inhibition versus log 10 of the concentration of the compound, and fitting to the nonlinear regression sigmoidal dose-response (variable slope) equation in XLFit (IDBS).
Consider `CCC(=O)N1CCC(Oc2ccc(-c3ccc4ccccc4c3)cc2)CC1` [Example 10, 1-[4-(4-Naphthalen-2-yl-phenoxy)-piperidin-1-yl]-propan-1-one], for which the IC50 is 1 to 99 nM.
With `CC(C)C(=O)N1CCC(Oc2ccc(-c3ccc4ccccc4c3)cc2)CC1` [Example 11, 2-Methyl-1-[4-(4-naphthalen-2-yl-phenoxy)-piperidin-1-yl]-propan-1-one], the IC50 was 1000 to 10000 nM.
For the molecule `CCC(=O)N1CCC(Oc2ccc(-c3cnc4cccnc4c3)cc2)CC1` [Example 12, 1-[4-(4-1,5-Naphthyridin-3-yl-phenoxy)-piperidin-1-yl]-propan-1-one], the IC50 is 1000 to 10000 nM.
Turning to `CC(C)C(=O)N1CCC(Oc2ccc(-c3cnc4cccnc4c3)cc2)CC1` [Example 13, 2-Methyl-1-[4-(4-1,5-naphthyridin-3-yl-phenoxy)-piperidin-1-yl]-propan-1-one], the IC50 lay within 1000 to 10000 nM.
In the case of `O=C(C1CC1)N1CCC(Oc2ccc(-c3cnc4cccnc4c3)cc2)CC1` [Example 14, Cyclopropyl-[4-(4-1,5-naphthyridin-3-yl-phenoxy)-piperidin-1-yl]-methanone], the IC50 lay within 1000 to 10000 nM.
Take `COC(=O)N1CCC(Oc2ccc(-c3cnc4ccccc4c3)cc2F)CC1` [Example 15, 4-(2-Fluoro-4-quinolin-3-yl-phenoxy)-piperidine-1-carboxylic acid methyl ester]: the IC50 was 1000 to 10000 nM.
The figure for `CCC(=O)N1CCC(Oc2ccc(-c3cc4ccccc4nc3Cl)cc2)CC1` [Example 16, 1-{4-[4-(2-Chloroquinolin-3-yl)-phenoxy]-piperidin-1-yl}-propan-1-one] is 1000 to 10000 nM; for `O=C(C1CC1)N1CCC(Oc2ccc(-c3cc4ccccc4nc3Cl)cc2)CC1` [Example 17, {4-[4-(2-Chloroquinolin-3-yl)-phenoxy]-piperidin-1-yl}-cyclopropyl-methanone] it is 1000 to 10000 nM.
On to `CCC(=O)N1CCC(Oc2ccc(-c3cc4ccccc4nc3OC)cc2)CC1` [Example 18, 1-{4-[4-(2-Methoxyquinolin-3-yl)-phenoxy]-piperidin-1-yl}-propan-1-one], for which the IC50 was in the range of 100 to 999 nM.
For `O=C(C1CC1)N1CCC(Oc2ccc(-c3cnc4c(c3)CCCC4)cc2)CC1` [Example 19, Cyclopropyl-{4-[4-(5,6,7,8-tetrahydro-quinolin-3-yl)-phenoxy]-piperidin-1-yl}-methanone], the IC50 was in the range of 1000 to 10000 nM.
For the molecule `O=C(C1CCC1)N1CCC(Oc2ccc(-c3cnc4c(c3)CCCC4)cc2)CC1` [Example 20, Cyclobutyl-{4-[4-(5,6,7,8-tetrahydroquinolin-3-yl)-phenoxy]-piperidin-1-yl}-methanone], the IC50 was in the range of 1000 to 10000 nM.
Then `CCC(=O)N1CCC(Oc2ccc(-c3cnc4c(c3)CCCC4)cc2)CC1` [Example 21, 1-{4-[4-(5,6,7,8-Tetrahydroquinolin-3-yl)-phenoxy]-piperidin-1-yl}-propan-1-one], with 1000 to 10000 nM; and `CCC(=O)N1CCC(Oc2ccc(-c3ccc4cccnc4c3F)cc2)CC1` [Example 22], with 1 to 99 nM.
With `O=C(C1CC1)N1CCC(Oc2ccc(-c3ccc4cccnc4c3F)cc2)CC1` [Example 23, Cyclopropyl-{4-[4-(8-fluoroquinolin-7-yl)-phenoxy]-piperidin-1-yl}-methanone], the IC50 lay within 1 to 99 nM.
With `O=C(C1CCC1)N1CCC(Oc2ccc(-c3ccc4cccnc4c3F)cc2)CC1` [Example 24, Cyclobutyl-{4-[4-(8-fluoroquinolin-7-yl)-phenoxy]-piperidin-1-yl}-methanone], the IC50 lay in the range of 1 to 99 nM.
For `CCC(=O)N1CCC(Oc2ccc(-c3ccc4ccc(C)nc4c3F)cc2)CC1` [Example 25, 1-{4-[4-(8-Fluoro-2-methylquinolin-7-yl)-phenoxy]-piperidin-1-yl}-propan-1-one], the IC50 lay within 1000 to 10000 nM.
With `Cc1ccc2ccc(-c3ccc(OC4CCN(C(=O)C5CC5)CC4)cc3)c(F)c2n1` [Example 26, Cyclopropyl-{4-[4-(8-fluoro-2-methylquinolin-7-yl)-phenoxy]-piperidin-1-yl}-methanone], the IC50 fell in the range of 1000 to 10000 nM.
Then `Cc1ccc2ccc(-c3ccc(OC4CCN(C(=O)C5CCC5)CC4)cc3)c(F)c2n1` [Example 27, Cyclobutyl-{4-[4-(8-fluoro-2-methylquinolin-7-yl)-phenoxy]-piperidin-1-yl}-methanone], with 1000 to 10000 nM; and `O=C([C@H]1CCCO1)N1CCC(Oc2ccc(-c3cnc4cccc(F)c4c3)cc2)CC1` [Example 28, {4-[4-(5-Fluoroquinolin-3-yl)-phenoxy]-piperidin-1-yl}-(R)-tetrahydrofuran-2-yl-methanone], with 1 to 99 nM.
Then `CCC(=O)N1CCC(Oc2ccc(-c3cnc4cccc(F)c4c3)cc2)CC1` [Example 29, 1-{4-[4-(5-Fluoroquinolin-3-yl)-phenoxy]-piperidin-1-yl}-propan-1-one], with 1 to 99 nM.
Turning to `O=C(C1CC1)N1CCC(Oc2ccc(-c3cnc4cccc(F)c4c3)cc2)CC1` [Example 30], the IC50 is 1 to 99 nM.
As for `O=C(C1CCC1)N1CCC(Oc2ccc(-c3cnc4cccc(F)c4c3)cc2)CC1` [Example 31, Cyclobutyl-{4-[4-(5-fluoroquinolin-3-yl)-phenoxy]-piperidin-1-yl}-methanone], the IC50 is 1 to 99 nM.
The figure for `CCC(=O)N1CCC(Oc2ccc(-c3cnc4[nH]ccc4c3)cc2)CC1` [Example 32, 1-{4-[4-(1H-Pyrrolo[2,3-b]pyridin-5-yl)-phenoxy]-piperidin-1-yl}-propan-1-one] is 100 to 999 nM.
Turning to `O=C(C1CC1)N1CCC(Oc2ccc(-c3cnc4[nH]ccc4c3)cc2)CC1` [Example 33, Cyclopropyl-{4-[4-(1H-pyrrolo[2,3-b]pyridin-5-yl)-phenoxy]-piperidin-1-yl}-methanone], the IC50 was 100 to 999 nM.
On to `COc1ccc2cc(-c3ccc(OC4CCN(C(=O)C5CC5)CC4)cc3)cnc2c1` [Example 34, Cyclopropyl-{4-[4-(7-methoxyquinolin-3-yl)-phenoxy]-piperidin-1-yl}-methanone], for which the IC50 was 1 to 99 nM.
Then `CCC(=O)N1CCC(Oc2ccc(-c3cnc4cc(OC)ccc4c3)cc2)CC1` [Example 35, 1-{4-[4-(7-Methoxyquinolin-3-yl)-phenoxy]-piperidin-1-yl}-propan-1-one], with 1 to 99 nM; and `CCC(=O)N1CCC(Oc2ccc(-c3ccc4cccnc4c3C)cc2)CC1` [Example 36], with 1 to 99 nM.
On to `Cc1c(-c2ccc(OC3CCN(C(=O)C4CC4)CC3)cc2)ccc2cccnc12` [Example 37, Cyclopropyl-{4-[4-(8-methylquinolin-7-yl)-phenoxy]-piperidin-1-yl}-methanone], for which the IC50 was 1 to 99 nM.
The figure for `Cc1c(-c2ccc(OC3CCN(C(=O)C4CCC4)CC3)cc2)ccc2cccnc12` [Example 38] is 1 to 99 nM; for `O=C(C1CC1)N1CCC(Oc2ccc(-c3ccc4ccccc4n3)cc2)CC1` [Example 39, Cyclopropyl-[4-(4-quinolin-2-yl-phenoxy)-piperidin-1-yl]-methanone] it is 100 to 999 nM; for `CCC(=O)N1CCC(Oc2ccc(-c3ccc4ccccc4n3)cc2)CC1` [Example 40, 1-[4-(4-Quinolin-2-yl-phenoxy)-piperidin-1-yl]-propan-1-one] it is 100 to 999 nM.
Turning to `O=C(C1CCC1)N1CCC(Oc2ccc(-c3ccc4ccccc4n3)cc2)CC1` [Example 41, Cyclobutyl-[4-(4-quinolin-2-yl-phenoxy)-piperidin-1-yl]-methanone], the IC50 is 100 to 999 nM.
As to `O=C([C@H]1CCCO1)N1CCC(Oc2ccc(-c3ccc4ccccc4n3)cc2)CC1` [Example 42, [4-(4-Quinolin-2-yl-phenoxy)-piperidin-1-yl]-(R)-tetrahydrofuran-2-yl-methanone], the IC50 lay within 1 to 99 nM.
With `CCC(=O)N1CCC(Oc2ccc(-c3cc4ccccc4cn3)cc2)CC1` [Example 43, 1-[4-(4-Isoquinolin-3-yl-phenoxy)-piperidin-1-yl]-propan-1-one], the IC50 was 1 to 99 nM.
The figure for `O=C(C1CC1)N1CCC(Oc2ccc(-c3cc4ccccc4cn3)cc2)CC1` [Example 44, Cyclopropyl-[4-(4-isoquinolin-3-yl-phenoxy)-piperidin-1-yl]-methanone] is 1 to 99 nM; for `O=C(C1CCC1)N1CCC(Oc2ccc(-c3cc4ccccc4cn3)cc2)CC1` [Example 45, Cyclobutyl-[4-(4-isoquinolin-3-yl-phenoxy)-piperidin-1-yl]-methanone] it is 1 to 99 nM.
For the molecule `O=C([C@H]1CCCO1)N1CCC(Oc2ccc(-c3cc4ccccc4cn3)cc2)CC1` [Example 46, [4-(4-Isoquinolin-3-yl-phenoxy)-piperidin-1-yl]-(R)-tetrahydrofuran-2-yl-methanone], the IC50 is 1 to 99 nM.
